Laboratory results from publication PMC11406360, “The enzymatic oxygen sensor cysteamine dioxygenase binds its protein substrates through their N-termini” (The Journal of Biological Chemistry, 2024).
Where a SMILES comes first, the peptide text is derived from it.

T1: ADO-Zn^2+ (Homo sapiens, UniProt Q96SZ5)
T1 construct: Full-length human ADO (UniProt ID: Q96SZ5) was cloned; made in house; host or cells: Rosetta2(DE3) Escherichia coli, M9 minimal media with 0.2 mM Co2+ or Zn2+
T1 sequence (Q96SZ5 1-270): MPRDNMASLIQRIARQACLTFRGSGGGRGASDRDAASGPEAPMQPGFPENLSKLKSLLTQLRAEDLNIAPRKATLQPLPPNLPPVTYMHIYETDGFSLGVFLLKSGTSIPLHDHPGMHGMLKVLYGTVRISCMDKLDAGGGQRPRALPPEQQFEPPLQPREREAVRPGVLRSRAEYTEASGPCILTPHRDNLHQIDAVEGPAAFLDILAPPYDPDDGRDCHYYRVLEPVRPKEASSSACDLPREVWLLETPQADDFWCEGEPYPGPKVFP

T2: ADO (2-aminoethanethiol dioxygenase), iron-bound wild type (Homo sapiens, UniProt Q96SZ5)
T2 construct: Full-length human ADO (UniProt ID: Q96SZ5) was cloned; made in house; host or cells: Rosetta2(DE3) Escherichia coli
T2 sequence (Q96SZ5 1-270): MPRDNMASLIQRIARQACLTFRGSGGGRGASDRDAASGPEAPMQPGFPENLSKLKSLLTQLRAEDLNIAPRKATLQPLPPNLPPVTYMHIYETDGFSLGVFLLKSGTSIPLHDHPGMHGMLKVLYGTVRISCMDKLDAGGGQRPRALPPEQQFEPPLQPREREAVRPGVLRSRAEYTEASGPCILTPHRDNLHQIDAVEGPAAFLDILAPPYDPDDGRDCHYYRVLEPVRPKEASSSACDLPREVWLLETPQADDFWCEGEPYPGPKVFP

T3: ADO-Co^2+ (Homo sapiens, UniProt Q96SZ5)
T3 construct: Full-length human ADO (UniProt ID: Q96SZ5) was cloned; made in house; host or cells: Rosetta2(DE3) Escherichia coli, M9 minimal media with 0.2 mM Co2+ or Zn2+
T3 sequence (Q96SZ5 1-270): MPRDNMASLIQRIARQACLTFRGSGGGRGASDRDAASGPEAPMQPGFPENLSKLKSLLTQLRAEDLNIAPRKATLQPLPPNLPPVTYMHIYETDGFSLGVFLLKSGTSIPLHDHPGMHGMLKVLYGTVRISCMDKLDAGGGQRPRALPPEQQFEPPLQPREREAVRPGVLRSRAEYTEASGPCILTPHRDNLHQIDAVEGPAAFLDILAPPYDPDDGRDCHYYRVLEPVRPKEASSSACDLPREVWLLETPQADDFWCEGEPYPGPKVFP

T4: ADO-H193D (Homo sapiens, UniProt Q96SZ5, H193D)
T4 construct: Full-length human ADO (UniProt ID: Q96SZ5) was cloned; made in house; host or cells: Rosetta2(DE3) Escherichia coli
T4 sequence (Q96SZ5 1-270 H193D): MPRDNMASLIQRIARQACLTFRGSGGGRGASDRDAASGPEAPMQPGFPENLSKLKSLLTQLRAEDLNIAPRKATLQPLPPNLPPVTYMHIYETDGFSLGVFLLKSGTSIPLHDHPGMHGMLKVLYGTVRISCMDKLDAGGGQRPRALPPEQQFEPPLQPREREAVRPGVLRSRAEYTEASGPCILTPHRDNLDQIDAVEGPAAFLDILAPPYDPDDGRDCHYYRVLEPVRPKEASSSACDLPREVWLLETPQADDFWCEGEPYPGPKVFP

T5: ADO (Homo sapiens, UniProt Q96SZ5)
T5 construct: Full-length human ADO (UniProt ID: Q96SZ5) was cloned; made in house; host or cells: Rosetta2(DE3) Escherichia coli
T5 sequence (Q96SZ5 1-270): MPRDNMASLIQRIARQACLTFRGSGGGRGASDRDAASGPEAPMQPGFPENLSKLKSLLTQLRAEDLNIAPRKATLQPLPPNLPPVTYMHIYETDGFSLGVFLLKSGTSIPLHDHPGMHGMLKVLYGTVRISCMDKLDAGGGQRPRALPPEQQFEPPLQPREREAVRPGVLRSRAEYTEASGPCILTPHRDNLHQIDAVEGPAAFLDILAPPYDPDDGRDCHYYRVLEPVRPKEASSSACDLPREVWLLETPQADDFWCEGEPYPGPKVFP


Legend:
[1] = biological target: T1, ADO-Zn^2+; experiment: LC-MS turnover time course with zinc-substituted ADO; format: biochemical; details: 100 μM peptide, 0.1 μM enzyme, 37 °C, attributed to residual iron bound ADO
Procedure: (§1) The catalytic functionality of the metal substituted ADO proteins was subsequently assessed by LC-MS using RGS5 peptide as a representative protein substrate. […] However, product formation was observed following long incubation times (≥30 min), with ∼80% conversion detected overnight, which is likely attributed to the activity of residual iron bound ADO (Fig. 2, E and H). Together, these findings indicate that different transition metals can substitute iron to facilitate protein substrate binding but not catalysis.
(§2) The enzymatic activity of ADO was examined by incubating between 0 to 1000 μM peptide and protein substrates with 0.05 to 0.1 μM ADO in a bench-top thermomixer at 37 °C for 45 s. Otherwise stated, the reaction buffer contained 50 mM Tris pH 7.5, 50 mM NaCl, and 5 mM TCEP. […]
(§3) Peptide and protein samples were injected onto a Chromolith RP-18 Endcapped HPLC Columns (100–2 mm; Merck) and Discovery BIO Wide Pore C5 HPLC Column (Supelco), respectively, heated to 40 °C and eluted at 0.3 ml/min using a gradient of 95% deionized water supplemented with 0.1% (v/v) formic acid to 95% acetonitrile. Oxidation was monitored by an ultra high-performance liquid chromatography MS using ExionLC AD (Sciex) and SelexION (Sciex) mass spectrometer operated in a positive electrospray TOF (+ESI-TOF) mode. […]

[2] = biological target: T1, ADO-Zn^2+; experiment: SPR binding to zinc-substituted ADO; details: SPR steady state, 1:1 model, 4 °C; geometric mean of minimum three independent measurements
Procedure: To study if different metals can compensate for the inherent iron cofactor, zinc (Zn^2+) and cobalt (Co^2+) substituted ADO was produced through minimal media expression, validated by ICP-MS, and analyzed for binding by SPR (Fig. 2E).
(§4) SPR measurements were made using a Biacore T200 (Cytiva) instrument and data were analyzed using the Biacore Insight Evaluation Software (Cytiva; https://www.cytivalifesciences.com/en/us/shop/protein-analysis/spr-label-free-analysis/spr-software-and-extensions/biacore-insight-evaluation-software-p-23528). Biotinylated-ADO was immobilized on a Biotin CAP chip (Cytiva) with a target density of ∼2500 to 3000 RU and peptide/protein substrates were injected over the chip. […] A buffer comprising 20 mM Hepes pH 7.5, 500 mM NaCl, 10 mM DTT, and 0.1% (v/v) tween-20 was used as the running buffer at a flow rate of 50 μl/min.

[3] = biological target: T2, ADO (2-aminoethanethiol dioxygenase), iron-bound wild type; experiment: SPR binding of peptide/protein substrates to immobilised ADO; details: SPR steady state, 1:1 binding model, biotinylated ADO on Biotin CAP chip, 4 °C, 20 mM Hepes pH 7.5, 500 mM NaCl, 10 mM DTT, 0.1% tween-20; geometric mean (± SD) of minimum three independent measurements; read-out: Equilibrium dissociation constant KD
Source text: ADO catalyzes the O2-dependent sulfinylation of Nt-cys residues, which reportedly bind to the iron cofactor in a monodentate arrangement through ligation of the thiol group ([14], [15]). To test the importance of Nt-cys modifications and substitutions on ADO association, a SPR assay was established. […] Data collected under steady state conditions is presented in the main text and kinetic constants are provided in the Tables S1–S8 (alongside steady state measurements). All measurements were collected at 4 °C to minimize enzyme activity.
as §4
For metal-chelation experiments, a mixture of 10 mM 1, 10-phenanthroline and 100 mM EDTA (pH 8) was injected onto the chip using 10 × 60 s injections at a 100 μl/min flow rate. […] The instrument and chip were primed into buffer excluding reducing agents before conducting metal chelation and iron reconstitution.

[4] = biological target: T3, ADO-Co^2+; experiment: LC-MS turnover time course with cobalt-substituted ADO; format: biochemical; details: 100 μM peptide, 0.1 μM enzyme, 37 °C, attributed to residual iron bound ADO
Procedure: as §1, §2, §3

[5] = biological target: T4, ADO-H193D; experiment: 15N-HSQC NMR titration with ADO-H193D; format: binding; details: 50 μM 15N-labelled protein, 150 μM ADO-H193D
Procedure: (§5) For titrations with ADO, ^15N-labeled RGS5^FL proteins were prepared at 50 μM, in buffer containing 20 mM Hepes pH 7.5, 150 mM NaCl, 10 mM DTT, and 10% (v/v) D2O. ^15N-HSQC spectra were collected before and after the addition of ADO to the labeled RGS5^FL samples. Intensity-based CSP plots were produced by calculating peak height values from the ^15N-HSQCs before and after addition of ADO and normalizing against the heights of ∼5 peaks from the HSQC that remained invariant throughout the titration.

[6] = biological target: T5, ADO; experiment: 15N-HSQC NMR titration with ADO; format: binding; details: 50 μM 15N-labelled protein, 20 mM Hepes pH 7.5, 150 mM NaCl, 10 mM DTT, ADO up to 800 μM
Procedure: as §5

Conversion by ADO-Zn^2+ overnight [1] [%]	Kd [2] [nM]	Kd [3] [nM]	Conversion by ADO-Co^2+ overnight [4] [%]	15N-HSQC interaction on titration of ADO-H193D [5]	Molecule	15N-HSQC chemical shift perturbations on titration of ADO [6]
~80	250 ± 370	290 ± 45	~80	–	CC(C)C[C@H](NC(=O)CNC(=O)[C@H](CCCCN)NC(=O)[C@@H](N)CS)C(=O)N[C@@H](C)C(=O)N[C@@H](C)C(=O)N[C@@H](CC(C)C)C(=O)N1CCC[C@H]1C(=O)N[C@@H](Cc1c[nH]cn1)C(=O)N[C@@H](CO)C(=O)N[C@@H](CS)C(=O)N[C@@H](CC(C)C)C(=O)N[C@@H](CCC(=O)O)C(=O)N[C@@H](CCCNC(=N)N)C(N)=O [RGS5] (H-CKGLAALPHSCLER-NH2)	–
–	–	–	–	no interaction was observed	RGS5^FL-C2S: full-length RGS5 C2S mutant (protein, left off: His tag, N-terminal, cleaved | SUMO, N-terminal, cleaved, full-length RGS5 C2S mutant) MSKGLAALPHSCLERAKEIKIKLGILLQKPDSVGDLVIPYNEKPEKPAKTQKTSLDEALQWRDSLDKLLQNNYGLASFKSFLKSEFSEENLEFWIACEDYKKIKSPAKMAEKAKQIYEEFIQTEAPKEVNIDHFTKDITMKNLVEPSLSSFDMAQKRIHALMEKDSLPRFVRSEFYQELIK	induced CSPs in the portion of the ^15N-HSQC corresponding to the disordered N terminus of RGS5
